Legend:
[1] = Drug-excipient compatibility: HPLC assay and impurities of 20 mg/ml API/excipient solutions in purified water after storage; assay type: physicochemical
Experimental: Common excipients functioning as a solvent, a sweetener, an antioxidant, a chelating agent, a buffer system component, and a preservative were evaluated in the following example for excipient and drug substance compatibility. Compatibility was assessed through high performance liquid chromatography (HPLC) analysis of solutions containing the mixtures of the drug substance and the individual evaluated excipient in purified water. A relatively low concentration (20 mg/ml) of active pharmaceutical ingredient was selected to enhance potential oxidative or hydrolytic degradation of the API in the presence of the excipients. The excipients were used in slight excess to enhance potential interactions. The proportion of excipients was selected such that it was representative of their respective proportions to the API in the finished product.
Additionally, the pH of the solution was also monitored during development to ensure the physical stability of the product.

[2] = pH range of 1 to 12 at ambient temperature; cited from earlier work
[3] = after storage for 1 Month at 25° C./60% RH
[4] = after storage for 1 Month at 40° C./75% RH
[5] = after storage for 15 days at 60° C.

## CN(C)CCCN1c2ccccc2Sc2ccc(Cl)cc21.Cl [Chlorpromazine hydrochloride, 2-chloro-10-[3-(dimethylamino)propyl] phenothiazine hydrochloride]
[1]; 1 M, 25° C./60% RH
  Assay of Chlorpromazine Hydrochloride (% Label Claim): 98.6 % Label Claim
[1]; 1 M, 40° C./75% RH
  Assay of Chlorpromazine Hydrochloride (% Label Claim): 98.7 % Label Claim
[1]; 15 Days, 60° C.
  Assay of Chlorpromazine Hydrochloride (% Label Claim): 100.9 % Label Claim
[1]; T0
  Assay of Chlorpromazine Hydrochloride (% Label Claim): 98.3 % Label Claim
[1]; [3]
  Impurities (%) A: 0.07%
  Impurities (%) C: 0.07%
  Impurities (%) D: 0.03%
  Impurities (%) Total: 0.24%
  Impurities (%) UD (RRT 0.55): 0.02%
  Impurities (%) UD (RRT 0.61): 0.02%
  Impurities (%) UD (RRT 1.42): 0.03%
[1]; [4]
  Impurities (%) A: 0.21%
  Impurities (%) C: 0.07%
  Impurities (%) D: 0.08%
  Impurities (%) Total: 0.44%
  Impurities (%) UD (RRT 0.55): 0.02%
  Impurities (%) UD (RRT 0.61): 0.02%
  Impurities (%) UD (RRT 1.42): 0.03%
[1]; [5]
  Impurities (%) A: 0.55%
  Impurities (%) C: 0.08%
  Impurities (%) D: 0.18%
  Impurities (%) E: 0.02%
  Impurities (%) Total: 1.04%
  Impurities (%) UD (RRT 0.49): 0.02%
  Impurities (%) UD (RRT 0.55): 0.14%
  Impurities (%) UD (RRT 0.61): 0.03%
  Impurities (%) UD (RRT 1.42): 0.03%
[1]; time zero
  Impurities (%) Total: 0.11%
  Impurities (%) UD (RRT 0.82): 0.08%
  Impurities (%) UD (RRT 1.31): 0.03%
[2]
  solubility: greater than 1 g/mL

Source: US11766441B2, “Oral liquid compositions including chlorpromazine” (GENUS LIFESCIENCES INC., priority 2020, dated 2023)
